Measured values as given in PMC1887774 (The Journal of General Physiology, 1998).
Entries after “also recorded” stand apart in the source; their conditions may differ.

Columns and labels:
[1] = target: T1, rat brain type IIA sodium channels (F1489Q α subunit + wild-type β1) (Rattus norvegicus, UniProt P04775, F1489Q/N209D); type: biochemical, rat (expressed in Xenopus laevis oocytes)
[2] = target: T1, rat brain type IIA sodium channels (F1489Q α subunit + wild-type β1); type: biochemical, rat (expressed in Xenopus laevis oocytes); remark: listed apart in the source
[3] = test system: sodium channels; details: ref Eaholtz et al., 1994, cited from earlier work
[4] = test system: cardiac sodium channel with mutations in M1651 and M1652; details: whole-cell recording, ref Tang et al. (1996), cited from earlier work

T1 sequence (P04775 whole entry N209D/F1489Q): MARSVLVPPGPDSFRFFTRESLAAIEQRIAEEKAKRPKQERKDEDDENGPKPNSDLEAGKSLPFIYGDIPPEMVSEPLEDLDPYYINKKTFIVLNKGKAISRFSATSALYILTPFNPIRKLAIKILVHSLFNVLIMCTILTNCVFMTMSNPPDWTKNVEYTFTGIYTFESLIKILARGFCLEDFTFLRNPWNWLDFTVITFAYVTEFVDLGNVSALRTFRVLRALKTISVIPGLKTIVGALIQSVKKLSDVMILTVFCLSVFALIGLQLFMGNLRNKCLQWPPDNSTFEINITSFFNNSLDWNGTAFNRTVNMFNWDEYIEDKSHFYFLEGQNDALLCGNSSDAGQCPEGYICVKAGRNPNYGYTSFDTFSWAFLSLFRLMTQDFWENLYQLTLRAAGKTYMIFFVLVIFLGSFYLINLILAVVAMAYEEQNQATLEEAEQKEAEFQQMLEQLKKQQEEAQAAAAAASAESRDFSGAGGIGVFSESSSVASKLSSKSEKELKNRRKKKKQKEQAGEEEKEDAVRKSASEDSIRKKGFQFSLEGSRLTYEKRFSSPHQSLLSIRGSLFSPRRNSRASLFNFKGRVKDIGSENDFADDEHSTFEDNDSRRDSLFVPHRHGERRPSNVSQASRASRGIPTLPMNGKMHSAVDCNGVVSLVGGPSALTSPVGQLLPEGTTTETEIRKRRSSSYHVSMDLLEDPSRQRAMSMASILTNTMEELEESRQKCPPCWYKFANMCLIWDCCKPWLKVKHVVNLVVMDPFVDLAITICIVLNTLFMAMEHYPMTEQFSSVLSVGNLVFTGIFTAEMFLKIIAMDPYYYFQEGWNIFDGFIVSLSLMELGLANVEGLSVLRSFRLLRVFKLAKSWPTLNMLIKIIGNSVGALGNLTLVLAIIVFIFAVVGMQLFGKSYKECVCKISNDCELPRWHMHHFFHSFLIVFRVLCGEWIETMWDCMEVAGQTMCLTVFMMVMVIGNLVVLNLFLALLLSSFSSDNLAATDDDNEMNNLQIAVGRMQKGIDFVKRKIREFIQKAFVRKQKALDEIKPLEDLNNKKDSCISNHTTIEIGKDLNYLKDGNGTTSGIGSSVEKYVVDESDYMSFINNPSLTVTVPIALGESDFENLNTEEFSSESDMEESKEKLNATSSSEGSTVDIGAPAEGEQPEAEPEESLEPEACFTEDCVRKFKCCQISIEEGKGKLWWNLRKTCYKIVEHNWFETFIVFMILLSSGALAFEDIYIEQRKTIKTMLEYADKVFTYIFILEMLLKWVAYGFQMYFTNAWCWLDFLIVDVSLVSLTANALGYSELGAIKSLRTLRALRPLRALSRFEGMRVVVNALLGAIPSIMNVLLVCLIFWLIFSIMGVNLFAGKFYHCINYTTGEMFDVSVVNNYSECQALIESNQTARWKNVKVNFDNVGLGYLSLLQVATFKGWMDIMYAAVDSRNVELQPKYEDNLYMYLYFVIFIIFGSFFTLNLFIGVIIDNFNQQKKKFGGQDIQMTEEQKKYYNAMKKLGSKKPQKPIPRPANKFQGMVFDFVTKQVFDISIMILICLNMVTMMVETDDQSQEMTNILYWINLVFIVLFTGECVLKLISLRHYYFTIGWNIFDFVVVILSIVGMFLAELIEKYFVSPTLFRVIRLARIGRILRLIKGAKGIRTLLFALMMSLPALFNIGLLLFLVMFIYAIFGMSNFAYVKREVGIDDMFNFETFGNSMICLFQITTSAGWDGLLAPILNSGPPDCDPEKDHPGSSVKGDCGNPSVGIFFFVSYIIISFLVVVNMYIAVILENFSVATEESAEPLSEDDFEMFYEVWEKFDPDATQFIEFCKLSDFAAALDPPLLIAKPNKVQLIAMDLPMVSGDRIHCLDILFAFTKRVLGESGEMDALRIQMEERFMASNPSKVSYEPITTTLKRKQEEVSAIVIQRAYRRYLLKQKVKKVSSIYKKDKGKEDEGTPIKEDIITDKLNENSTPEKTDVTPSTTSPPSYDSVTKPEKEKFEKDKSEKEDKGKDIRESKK
T1 sequence (Q00954 19-218 partner): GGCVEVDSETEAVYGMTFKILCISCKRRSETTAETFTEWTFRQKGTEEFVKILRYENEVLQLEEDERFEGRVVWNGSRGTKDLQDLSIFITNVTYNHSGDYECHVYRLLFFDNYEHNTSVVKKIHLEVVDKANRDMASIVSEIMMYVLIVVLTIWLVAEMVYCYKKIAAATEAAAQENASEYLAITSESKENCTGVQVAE

Which “block of the steady state sodium current” value ([1]; 100 μM KIFMK, voltage step from −100 to 0 mV) does the source give for `CC[C@H](C)[C@H](NC(=O)[C@H](CCCCN)NC(C)=O)C(=O)N[C@@H](Cc1ccccc1)C(=O)N[C@@H](CCSC)C(=O)N[C@@H](CCCCN)C(N)=O` [KIFMK, acetyl-KIFMK-NH2] here?
Its value is over 70%.

What about the koff ([1]; read-out: unblocking rate k u (= k off)) of the same molecule?
Its koff is 342 ± 21 s⁻¹.

What about the “shift of the I-V relationship” value ([2]; 100 μM KIFMK compared with no peptide control, test voltages −80 to 110 mV) of the same molecule?
The value was “negative shift of the I-V relationship”.

What about the “voltage dependence of unblocking (off) rates” value ([2]; 100 μM KIFMK, −30 to 30 mV) of the same molecule?
The value was “voltage independent; also recorded: not affected by voltage; also recorded: no voltage dependence”.

And the “mean unblocking rate k u over the voltage range” value ([2]; 100 μM KIFMK, −30 to 30 mV, mean ± SEM, n = 4)?
The value was 336 ± 14 s⁻¹.

And the “voltage constant of blocking rate fit, exp^(V/43 mV)” value ([2]; 100 μM KIFMK, e-fold factor of k b (Fig. 3 B) and k on (Scheme 1))?
Its value is 43 mV.

What about the “extent of the electric field traversed by the lysine charges” value ([2]; if both charges enter the electric field to an equivalent extent) of the same molecule?
Its value is 30%.

And the types of block ([3]; cytoplasmic application)?
The types of block was “a rapid block, which occurs in milliseconds and resembles inactivation in kinetics and voltage dependence, and a cumulative, use-dependent block, which occurs during repetitive high voltage pulses”.

And the slow block [3]?
The slow block was “slow block that occurs at voltages more depolarized than 0 mV”.

What about the “state preference of block” value [3] of the same molecule?
The value was “appears to preferentially block open channels”.

And the “K d from ratio of the on and off rates” value ([4]; outward sodium currents)?
The value was about 30 µM.

What about the “dependence of the on rate on peptide concentration” value [4] of the same molecule?
Its value is “deviated significantly from linearity”.

What about the “voltage dependence of block rate” value [4] of the same molecule?
Its value is “no voltage dependence of block rate was detected”.
